Measured values from US7304093B2, “Ketone compounds and compositions for cholesterol management and related uses” (Esperion Therapeutics, Inc., priority 2000, dated 2007).
Where two headings read alike, the source gives them in different places. Marks after values point to notes of the source that are not given here.

Test system: female obese Zucker rats
Assay: Serum lipid and glycemic control variables in chow-fed obese female Zucker rats, daily oral gavage for two weeks
Format: in vivo, rat
Conditions: for change in vivo at 100 mg/kg: Rattus norvegicus, Table 9; for Glucose / HDL-C / NEFA / Non-HDL-C / TG / Insulin: serum, mean ± SEM
How it was run: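 Female obese Zucker fa rats, 10–12 wk, 400–500 g, chow-fed, dosed daily by oral gavage for 14 days in CMC/Tween 20 or ethanol/PEG-200 vehicle. After a 6-h fast, serum was sampled pre-dose, day 7 and day 14. Triglycerides, total cholesterol, NEFA and β-hydroxybutyrate were measured, plus lipoprotein cholesterol by gel-filtration profiling.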

[1] = 168 h, 100 mg/kg daily oral, 1 wk, read-out: HDL-Cholesterol, Percent Change from Pre-Treatment
[2] = 168 h, 100 mg/kg daily oral, 1 wk, read-out: NonHDL-Cholesterol, Percent Change from Pre-Treatment
[3] = 168 h, 100 mg/kg daily oral, 1 wk, read-out: TG, Percent Change from Pre-Treatment
[4] = 336 h, 100 mg/kg daily oral, 2 wk, read-out: HDL-Cholesterol, Percent Change from Pre-Treatment
[5] = 336 h, 100 mg/kg daily oral, 2 wk, read-out: NonHDL-Cholesterol, Percent Change from Pre-Treatment
[6] = 336 h, 100 mg/kg daily oral, 2 wk, read-out: TG, Percent Change from Pre-Treatment

## CC(C)(CCCCCC(=O)CCCCCC(C)(C)C(=O)O)C(=O)O [Compound 210g, 2,2,14,14-Tetramethyl-8-oxopentadecanedioic acid]
3 mg/kg daily oral, 1 wk
  NEFA, percent increase (+) or decrease (−) of the pretreatment control value: (−15) percent
  Glucose: 117 ± 4 mg/dL
  HDL-C: 75 ± 6 mg/dL
  NEFA: 1.1 ± 0.07
  Non-HDL-C: 23 ± 2 mg/dL
  TG: 995 ± 50^a mg/dl
3 mg/kg daily oral, 2 wk
  Glucose, percent increase (+) or decrease (−) of the pretreatment control value: (+108) percent
  NEFA, percent increase (+) or decrease (−) of the pretreatment control value: (−23) percent
  Glucose: 124 ± 4^a mg/dl
  HDL-C: 77 ± 8 mg/dL
  NEFA: 1.0 ± 0.10
  Non-HDL-C: 25 ± 2 mg/dL
  TG: 833 ± 57 mg/dL
10 mg/kg daily oral, 1 wk
  HDL-C, percent increase (+) or decrease (−) of the pretreatment control value: (+158) percent
  NEFA, percent increase (+) or decrease (−) of the pretreatment control value: (−17) percent
  TG, percent increase (+) or decrease (−) of the pretreatment control value: (−36) percent
  Glucose: 122 ± 3 mg/dL
  HDL-C: 136 ± 11^a mg/dl
  NEFA: 1.0 ± 0.07
  Non-HDL-C: 22 ± 2 mg/dL
  TG: 553 ± 35^a mg/dl
10 mg/kg daily oral, 2 wk
  HDL-C, percent increase (+) or decrease (−) of the pretreatment control value: (+160) percent
  NEFA, percent increase (+) or decrease (−) of the pretreatment control value: (−21) percent
  Non-HDL-C, percent increase (+) or decrease (−) of the pretreatment control value: (+155) percent
  Glucose: 125 ± 4 mg/dL
  HDL-C: 138 ± 8^a mg/dl
  NEFA: 0.95 ± 0.08
  Non-HDL-C: 34 ± 3^a mg/dl
  TG: 865 ± 69 mg/dL
30 mg/kg daily oral, 1 wk
  HDL-C, percent increase (+) or decrease (−) of the pretreatment control value: (+256) percent
  Insulin, percent increase (+) or decrease (−) of the pretreatment control value: (−35) percent
  NEFA, percent increase (+) or decrease (−) of the pretreatment control value: (−32) percent
  Non-HDL-C, percent increase (+) or decrease (−) of the pretreatment control value: (−48) percent
  TG, percent increase (+) or decrease (−) of the pretreatment control value: (−78) percent
  Glucose: 108 ± 4 mg/dL
  HDL-C: 159 ± 12^a mg/dl
  NEFA: 0.88 ± 0.06
  Non-HDL-C: 14 ± 2^a mg/dl
  TG: 213 ± 19^a mg/dl
30 mg/kg daily oral, 2 wk
  HDL-C, percent increase (+) or decrease (−) of the pretreatment control value: (+335) percent
  Insulin, percent increase (+) or decrease (−) of the pretreatment control value: (−21) percent
  NEFA, percent increase (+) or decrease (−) of the pretreatment control value: (−49) percent
  TG, percent increase (+) or decrease (−) of the pretreatment control value: (−52) percent
  Glucose: 130 ± 4 mg/dL
  HDL-C: 208 ± 14^a mg/dl
  NEFA: 0.66 ± 0.03
  Non-HDL-C: 30 ± 2 mg/dL
  TG: 475 ± 38^a mg/dl
100 mg/kg daily oral, 1 wk
  Glucose, percent increase (+) or decrease (−) of the pretreatment control value: (−21) percent
  HDL-C, percent increase (+) or decrease (−) of the pretreatment control value: (+151) percent
  Insulin, percent increase (+) or decrease (−) of the pretreatment control value: (−46) percent
  NEFA, percent increase (+) or decrease (−) of the pretreatment control value: (−30) percent
  Non-HDL-C, percent increase (+) or decrease (−) of the pretreatment control value: (−92) percent
  TG, percent increase (+) or decrease (−) of the pretreatment control value: (−93) percent
  Glucose: 92 ± 4^a mg/dl
  HDL-C: 100 ± 8^a mg/dl
  NEFA: 0.98 ± 0.08
  Non-HDL-C: 2 ± 1^a mg/dl
  TG: 69 ± 5^a mg/dl
100 mg/kg daily oral, 2 wk
  Glucose, percent increase (+) or decrease (−) of the pretreatment control value: (−10) percent
  HDL-C, percent increase (+) or decrease (−) of the pretreatment control value: (+213) percent
  Insulin, percent increase (+) or decrease (−) of the pretreatment control value: (−50) percent
  NEFA, percent increase (+) or decrease (−) of the pretreatment control value: (−52) percent
  Non-HDL-C, percent increase (+) or decrease (−) of the pretreatment control value: (−88) percent
  TG, percent increase (+) or decrease (−) of the pretreatment control value: (−92) percent
  Glucose: 105 ± 3^a mg/dl
  HDL-C: 141 ± 12^a mg/dl
  NEFA: 0.66 ± 0.08
  Non-HDL-C: 3 ± 1^a mg/dl
  TG: 78 ± 10^a mg/dl
[1]
  change in vivo at 100 mg/kg: 72%
[2]
  change in vivo at 100 mg/kg: -98%
[3]
  change in vivo at 100 mg/kg: -93%
[4]
  change in vivo at 100 mg/kg: 168%
[5]
  change in vivo at 100 mg/kg: -99%
[6]
  change in vivo at 100 mg/kg: -94%
3 mg/kg daily oral, 1 wk, Table 12
  Insulin: 10.0 ± 1.0 ng/mL
3 mg/kg daily oral, 2 wk, Table 12
  Insulin: 7.3 ± 0.5 ng/mL
10 mg/kg daily oral, 1 wk, Table 12
  Insulin: 10.5 ± 1.1 ng/mL
10 mg/kg daily oral, 2 wk, Table 12
  Insulin: 9.1 ± 0.7 ng/mL
30 mg/kg daily oral, 1 wk, Table 12
  Insulin: 6.4 ± 0.6^a ng/ml
30 mg/kg daily oral, 2 wk, Table 12
  Insulin: 7.7 ± 0.9^a ng/ml
100 mg/kg daily oral, 1 wk, Table 12
  Insulin: 6.4 ± 1.3^a ng/ml
100 mg/kg daily oral, 2 wk, Table 12
  Insulin: 6.0 ± 0.8^a ng/ml

## CC(C)(CO)CCCCC(=O)CCCCC(C)(C)CO [Compound 214c, 1,13-Dihydroxy-2,2,12,12-tetramethyltridecan-7-one]
3 mg/kg daily oral, 1 wk
  HDL-C, percent increase (+) or decrease (−) of the pretreatment control value: (−10) percent
  Glucose: 106 ± 2 mg/dL
  HDL-C: 43 ± 4^a mg/dl
  NEFA: 1.2 ± 0.05 mg/dL
  Non-HDL-C: 25 ± 3 mg/dL
  TG: 800 ± 75 mg/dL
3 mg/kg daily oral, 2 wk
  HDL-C, percent increase (+) or decrease (−) of the pretreatment control value: (−19) percent
  NEFA, percent increase (+) or decrease (−) of the pretreatment control value: (+145) percent
  Glucose: 103 ± 3 mg/dL
  HDL-C: 39 ± 4^a mg/dl
  NEFA: 1.6 ± 0.13
  Non-HDL-C: 22 ± 2 mg/dL
  TG: 781 ± 65 mg/dL
10 mg/kg daily oral, 1 wk
  HDL-C, percent increase (+) or decrease (−) of the pretreatment control value: (+113) percent
  NEFA, percent increase (+) or decrease (−) of the pretreatment control value: (−18) percent
  TG, percent increase (+) or decrease (−) of the pretreatment control value: (−23) percent
  Glucose: 110 ± 2 mg/dL
  HDL-C: 52 ± 3^a mg/dl
  NEFA: 0.98 ± 0.08
  Non-HDL-C: 21 ± 2 mg/dL
  TG: 602 ± 37^a mg/dl
10 mg/kg daily oral, 2 wk
  HDL-C, percent increase (+) or decrease (−) of the pretreatment control value: (+115) percent
  Glucose: 110 ± 3 mg/dL
  HDL-C: 53 ± 4^a mg/dl
  NEFA: 1.0 ± 0.10 mg/dL
  Non-HDL-C: 25 ± 2 mg/dL
  TG: 730 ± 52 mg/dL
30 mg/kg daily oral, 1 wk
  HDL-C, percent increase (+) or decrease (−) of the pretreatment control value: (+140) percent
  NEFA, percent increase (+) or decrease (−) of the pretreatment control value: (−21) percent
  TG, percent increase (+) or decrease (−) of the pretreatment control value: (−27) percent
  Glucose: 112 ± 13 mg/dL
  HDL-C: 60 ± 3^a mg/dl
  NEFA: 1.1 ± 0.05
  Non-HDL-C: 28 ± 2 mg/dL
  TG: 726 ± 49^a mg/dl
30 mg/kg daily oral, 2 wk
  HDL-C, percent increase (+) or decrease (−) of the pretreatment control value: (+142) percent
  Non-HDL-C, percent increase (+) or decrease (−) of the pretreatment control value: (+127) percent
  Glucose: 120 ± 3 mg/dL
  HDL-C: 61 ± 4^a mg/dl
  NEFA: 1.2 ± 0.10 mg/dL
  Non-HDL-C: 38 ± 5^a mg/dl
  TG: 985 ± 110 mg/dL
100 mg/kg daily oral, 1 wk
  HDL-C, percent increase (+) or decrease (−) of the pretreatment control value: (+173) percent
  NEFA, percent increase (+) or decrease (−) of the pretreatment control value: (−30) percent
  TG, percent increase (+) or decrease (−) of the pretreatment control value: (−54) percent
  Glucose: 120 ± 5 mg/dL
  HDL-C: 78 ± 5^a mg/dl
  NEFA: 0.98 ± 0.04
  Non-HDL-C: 23 ± 1 mg/dL
  TG: 485 ± 29^a mg/dl
100 mg/kg daily oral, 2 wk
  HDL-C, percent increase (+) or decrease (−) of the pretreatment control value: (+176) percent
  NEFA, percent increase (+) or decrease (−) of the pretreatment control value: (−33) percent
  TG, percent increase (+) or decrease (−) of the pretreatment control value: (−33) percent
  Glucose: 118 ± 3 mg/dL
  HDL-C: 79 ± 6^a mg/dl
  NEFA: 0.94 ± 0.04
  Non-HDL-C: 32 ± 2 mg/dL
  TG: 702 ± 53^a mg/dl
[1]
  change in vivo at 100 mg/kg: 110%
[2]
  change in vivo at 100 mg/kg: -23%
[3]
  change in vivo at 100 mg/kg: -54%
[4]
  change in vivo at 100 mg/kg: 126%
[5]
  change in vivo at 100 mg/kg: -10%
[6]
  change in vivo at 100 mg/kg: -29%
3 mg/kg daily oral, 1 wk, Tables 10, 11
  Insulin: 7.5 ± 0.8 ng/mL
3 mg/kg daily oral, 2 wk, Tables 10, 11
  Insulin: 7.8 ± 0.6 ng/mL
10 mg/kg daily oral, 1 wk, Tables 10, 11
  Insulin: 7.5 ± 0.4 ng/mL
10 mg/kg daily oral, 2 wk, Tables 10, 11
  Insulin: 7.8 ± 0.5 ng/mL
30 mg/kg daily oral, 1 wk, Tables 10, 11
  Insulin: 0.091 ± 0.006 ng/mL
30 mg/kg daily oral, 2 wk, Tables 10, 11
  Insulin: 0.098 ± 0.007 ng/mL
100 mg/kg daily oral, 1 wk, Tables 10, 11
  Insulin: 0.109 ± 0.01 ng/mL
100 mg/kg daily oral, 2 wk, Tables 10, 11
  Insulin: 0.11 ± 0.009 ng/mL
